# Reference: paper PMC8213057, “Targeting ALK2: An Open Science Approach to Developing Therapeutics for the Treatment of Diffuse Intrinsic Pontine Glioma” (Journal of Medicinal Chemistry, 2020)
# Several values for one entry are separate records, joined by “and”; a condition that tells them apart may be missing. Equal values may be shown once.
# Legend:
# [1] = target: ALK2 (WT)
# [2] = target: ALK5
# [3] = test system: NanoBRET ALK2
# [4] = test system: DLA ALK5
# [5] = target: T1, ALK2/ACVR1 (Homo sapiens, UniProt Q04771); assay type: biochemical; conditions: for Fold Selectivity (ALK5/ALK2): biochemical ALK5 IC50 / ALK2 IC50; for fold decrease in inhibitory activity against ALK2: biochemical, relative to M4K2149
# T1 construct: purchased Reaction Biology Corporation
# T1 sequence (Q04771 21-509): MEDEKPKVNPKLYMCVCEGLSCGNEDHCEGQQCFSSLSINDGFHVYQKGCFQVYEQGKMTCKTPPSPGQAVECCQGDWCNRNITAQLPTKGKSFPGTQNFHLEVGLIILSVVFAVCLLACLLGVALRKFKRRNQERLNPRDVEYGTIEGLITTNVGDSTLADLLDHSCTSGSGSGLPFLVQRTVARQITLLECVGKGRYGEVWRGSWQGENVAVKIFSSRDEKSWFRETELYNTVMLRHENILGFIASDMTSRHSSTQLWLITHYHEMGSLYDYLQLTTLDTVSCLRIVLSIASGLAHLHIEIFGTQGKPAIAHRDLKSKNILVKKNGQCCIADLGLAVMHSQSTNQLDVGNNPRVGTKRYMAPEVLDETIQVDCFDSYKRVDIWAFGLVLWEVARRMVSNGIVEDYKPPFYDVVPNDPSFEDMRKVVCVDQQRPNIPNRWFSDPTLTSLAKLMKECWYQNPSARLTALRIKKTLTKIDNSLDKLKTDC
# [6] = target: T2, ALK2 (Homo sapiens, UniProt Q04771); assay: NanoBRET target engagement assay in HEK293 cells; assay type: cell-based; conditions: DLA ALK5 IC50 / NanoBRET ALK2 IC50
# T2 construct: host or cells: HEK-293
# T2 sequence (Q04771 21-509): T1 sequence (Q04771 21-509)
# [7] = mouse liver microsomal stability assay; assay type: in vitro ADME; conditions: male, 60 min, 37 °C, read-out: MLM % Remaining at 1h
# [8] = human liver microsomal stability assay; assay type: in vitro ADME; conditions: pH 7.4, human liver microsomes, 60 min, 37 °C, read-out: HLM % Remaining at 1h
# [9] = in vivo; conditions: female, CB17 SCID, mouse, po, 10 mg/kg
# [10] = test system: Caco-2 cells; assay: Caco-2 permeability assay; conditions: 5 μM
# [11] = Caco-2 permeability assay; conditions: human
# [12] = target: ALK2 (G328V)
# [13] = target: ALK2 (R258G)
# [14] = in vitro; conditions: human, Caco-2, pH 7.4
# [15] = test system: hERG
# [16] = target: T3, hERG potassium channel (Homo sapiens, UniProt Q12809); assay: hERG patch-clamp assay in HEK293 cells; conditions: HEK293 cell-based patch-clamp
# T3 construct: host or cells: HEK293
# [17] = test system: Caco-2 cells; design: method as in earlier work; conditions: unpublished results ref 21; cited from earlier work
# [18] = CD-1, mouse, microsomes, pH 7.4, mouse liver microsomes
# [19] = CD-1, pH 7.4, mouse liver microsomes
# T3 sequence (Q12809 whole entry): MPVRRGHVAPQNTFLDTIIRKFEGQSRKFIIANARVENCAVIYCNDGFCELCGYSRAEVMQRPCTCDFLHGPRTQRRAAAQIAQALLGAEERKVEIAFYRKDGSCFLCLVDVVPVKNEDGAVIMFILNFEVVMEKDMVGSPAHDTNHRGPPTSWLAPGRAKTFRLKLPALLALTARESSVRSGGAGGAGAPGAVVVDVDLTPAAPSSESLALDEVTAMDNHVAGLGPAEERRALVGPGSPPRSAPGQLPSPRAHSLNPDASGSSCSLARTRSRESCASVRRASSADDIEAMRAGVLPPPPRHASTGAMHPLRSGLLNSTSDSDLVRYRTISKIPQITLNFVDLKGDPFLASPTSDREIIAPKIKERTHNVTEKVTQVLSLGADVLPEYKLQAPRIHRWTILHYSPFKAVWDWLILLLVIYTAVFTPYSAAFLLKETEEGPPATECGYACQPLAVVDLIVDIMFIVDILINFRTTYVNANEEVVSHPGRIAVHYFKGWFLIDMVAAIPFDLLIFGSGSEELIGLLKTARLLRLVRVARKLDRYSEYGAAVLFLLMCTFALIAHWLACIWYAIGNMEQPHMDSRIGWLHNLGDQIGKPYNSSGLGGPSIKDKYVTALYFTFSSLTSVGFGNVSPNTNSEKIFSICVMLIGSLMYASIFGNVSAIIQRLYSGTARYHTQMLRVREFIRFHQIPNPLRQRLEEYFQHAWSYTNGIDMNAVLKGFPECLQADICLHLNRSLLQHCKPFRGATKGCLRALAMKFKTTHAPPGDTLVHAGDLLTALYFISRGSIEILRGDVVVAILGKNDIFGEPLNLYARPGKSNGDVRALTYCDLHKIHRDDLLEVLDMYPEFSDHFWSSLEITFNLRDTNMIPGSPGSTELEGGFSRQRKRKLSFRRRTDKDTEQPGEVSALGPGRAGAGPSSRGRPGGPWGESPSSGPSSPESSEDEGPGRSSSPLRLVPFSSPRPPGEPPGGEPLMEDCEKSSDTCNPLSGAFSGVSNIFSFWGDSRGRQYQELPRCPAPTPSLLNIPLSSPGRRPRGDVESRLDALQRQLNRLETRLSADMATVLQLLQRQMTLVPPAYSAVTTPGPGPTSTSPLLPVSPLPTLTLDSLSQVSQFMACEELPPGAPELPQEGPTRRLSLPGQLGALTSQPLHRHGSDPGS
structure (smiles),measurement,setting,value
CNC(=O)c1ccc(-c2cncc(-c3ccc(N4CCNCC4)cc3)c2C)cc1OC,IC50,[1],> 1 µM
same,IC50,[2],> 5 µM
same,IC50,[3],> 5 µM
same,IC50,[4],> 5 µM
COc1c(C(N)=O)csc1-c1cncc(-c2ccc(N3CCNCC3)cc2)c1C,IC50,[1],> 1 µM
same,IC50,[2],> 5 µM
same,IC50,[3],> 5 µM
same,IC50,[4],> 5 µM
COc1cc(-c2cncc(-c3ccc(N4CCNCC4)cc3)c2C)ccc1C(=O)N(C)C,IC50,[1],> 1 µM
same,IC50,[2],> 5 µM
same,IC50,[3],> 5 µM
same,IC50,[4],> 5 µM
"COc1cc(-c2cncc(-c3ccc(N4CCNCC4)cc3)c2C)sc1C(N)=O [Compound 7a, 3-Methoxy-5-(4-methyl-5-(4-(piperazin-1-yl)phenyl)pyridin-3-yl)thiophene-2-carboxamide]",IC50,[2],> 5 µM
same,IC50,[4],> 5 µM
same,Fold Selectivity (ALK5/ALK2),[5],>6
same,fold decrease in inhibitory activity against ALK2,[5],greater than 40 fold
same,Cell-based Fold Selectivity,[6],>1
"COc1c(-c2cncc(-c3ccc(N4CCNCC4)cc3)c2C)csc1C(N)=O [Compound 7b, 3-Methoxy-4-(4-methyl-5-(4-(piperazin-1-yl)phenyl)pyridin-3-yl)thiophene-2-carboxamide]",IC50,[2],> 5 µM
same,IC50,[4],> 5 µM
same,Fold Selectivity (ALK5/ALK2),[5],>7
same,fold decrease in inhibitory activity against ALK2,[5],greater than 40 fold
same,Cell-based Fold Selectivity,[6],>1
"COc1cc(-c2cncc(-c3ccc(N4CCNCC4)cc3)c2C)cc(F)c1C(N)=O [Compound 8b, 2-Fluoro-6-methoxy-4-(4-methyl-5-(4-(piperazin-1-yl)phenyl)pyridin-3-yl)benzamide]",Fold Selectivity (ALK5/ALK2),[5],80
same,"remaining at 1 h, 1 μM",[7]; [18],98.4%
same,"remaining at 1 h, 1 μM","[8]; human, microsomes",105%
same,half-life at 24 h,[9],1.31 h
same,Papp_AB,"[10]; Caco-2, apical to basolateral",0.3 10^-6 cm/s
same,Papp_BA,"[10]; Caco-2, basolateral to apical",10.7 10^-6 cm/s
"COc1cc(-c2cncc(-c3ccc(N4CCNCC4)cc3)c2C)cc(OC)c1C(N)=O [Compound 8c, 2,6-Dimethoxy-4-(4-methyl-5-(4-(piperazin-1-yl)phenyl)pyridin-3-yl)benzamide]",Fold Selectivity (ALK5/ALK2),[5],9
same,"remaining at 1 h, 1 μM",[7]; [19],99.8%
same,"remaining at 1 h, 1 μM",[8]; pooled liver microsomes,88.8%
same,"Papp A→B at 120 min, 5 μM","[11]; Caco-2, pH 7.4",0.1 ×10⁻⁶ cm/s
same,"Papp B→A at 120 min, 5 μM","[11]; Caco-2, pH 7.4",6.1 ×10⁻⁶ cm/s
"COc1ccc(-c2cncc(-c3ccc(N4CCNCC4)cc3)c2C)cc1C(N)=O [Compound 14a, 2-Methoxy-5-(4-methyl-5-(4-(piperazin-1-yl)phenyl)pyridin-3-yl)benzamide]",IC50,[1],> 1 µM
same,IC50,[2],> 5 µM
same,IC50,[4],> 5 µM
same,Cell-based Fold Selectivity,[6],>7
"COc1cc(C(N)=O)cc(-c2cncc(-c3ccc(N4CCNCC4)cc3)c2C)c1 [Compound 14b, 3-Methoxy-5-(4-methyl-5-(4-(piperazin-1-yl)phenyl)pyridin-3-yl)benzamide]",IC50,[2],> 5 µM
same,IC50,[4],> 5 µM
same,Fold Selectivity (ALK5/ALK2),[5],>49
same,Cell-based Fold Selectivity,[6],>8
"Cc1c(-c2ccc(N3CCNCC3)cc2)cncc1-c1ccc2c(c1)CNC2=O [Compound 20a, 5-(4-Methyl-5-(4-(piperazin-1-yl)phenyl)pyridin-3-yl)isoindolin-1-one]",IC50,[2],> 5 µM
same,Fold Selectivity (ALK5/ALK2),[5],>7
"Cc1c(-c2ccc(C(N)=O)cc2)cncc1-c1ccc(N2CCNCC2)cc1 [Compound 20b, 4-(4-Methyl-5-(4-(piperazin-1-yl)phenyl)pyridin-3-yl)benzamide]",IC50,[2],> 5 µM
same,IC50,[4],> 5 µM
same,Fold Selectivity (ALK5/ALK2),[5],>10
same,fold decrease in inhibitory activity against ALK2,[5],28 fold
same,Cell-based Fold Selectivity,[6],>1
"COCc1cc(-c2cncc(-c3ccc(N4CCNCC4)cc3)c2C)ccc1C(N)=O [Compound 20c, 2-(Methoxymethyl)-4-(4-methyl-5-(4-(piperazin-1-yl)phenyl)pyridin-3-yl)benzamide]",IC50,[2],> 5 µM
same,IC50,[4],> 5 µM
same,Fold Selectivity (ALK5/ALK2),[5],>7
same,Cell-based Fold Selectivity,[6],>1
"Cc1c(-c2ccc(N3CCNCC3)cc2)cncc1-c1ccc(C(N)=O)c(F)c1 [Compound 20d, 2-Fluoro-4-(4-methyl-5-(4-(piperazin-1-yl)phenyl)pyridin-3-yl)benzamide]",IC50,[2],> 5 µM
same,IC50,[4],> 5 µM
same,Fold Selectivity (ALK5/ALK2),[5],>19
same,Cell-based Fold Selectivity,[6],>4
"COc1cc(-c2cncc(-c3ccc(N4CCNCC4)cc3)c2C)cc(Cl)c1C(N)=O [Compound 20e, 2-Chloro-6-methoxy-4-(4-methyl-5-(4-(piperazin-1-yl)phenyl)pyridin-3-yl)benzamide]",IC50,[4],> 5 µM
same,IC50,[12],< 0.002 µM
same,Cell-based Fold Selectivity,[6],>54
"COc1cc(-c2cncc(-c3ccc(N4CCN(C)CC4)cc3)c2C)cc(OC)c1C(N)=O [Compound 26d, 2,6-Dimethoxy-4-(4-methyl-5-(4-(4-methylpiperazin-1-yl)phenyl)pyridin-3-yl)benzamide]",IC50,[1],< 0.003 µM
same,IC50,[12],< 0.002 µM
same,IC50,[13],< 0.002 µM
same,"remaining at 1 h, 1 μM",[7]; [19],85.2%
same,"remaining at 1 h, 1 μM",[8]; pooled liver microsomes,81.4%
same,"Papp A→B at 120 min, 5 μM","[11]; Caco-2, pH 7.4",0.7 ×10⁻⁶ cm/s
same,"Papp B→A at 120 min, 5 μM","[11]; Caco-2, pH 7.4",13.9 ×10⁻⁶ cm/s
same,"efflux ratio at 120 min, 5 μM","[11]; Caco-2, pH 7.4",> 10
"COc1cc(-c2cncc(-c3ccc(N4CCN(C(C)C)CC4)cc3)c2C)cc(OC)c1C(N)=O [Compound 26e, 4-(5-(4-(4-Isopropylpiperazin-1-yl)phenyl)-4-methylpyridin-3-yl)-2,6-dimethoxybenzamide]",Fold Selectivity (ALK5/ALK2),[5],13
same,"remaining at 1 h, 1 μM",[7]; [19],99.5%
same,"remaining at 1 h, 1 μM",[8]; pooled liver microsomes,98%
same,"Papp A→B at 120 min, 5 μM","[11]; Caco-2, pH 7.4",0.9 ×10⁻⁶ cm/s
same,"Papp B→A at 120 min, 5 μM","[11]; Caco-2, pH 7.4",14.4 ×10⁻⁶ cm/s
same,"efflux ratio at 120 min, 5 μM","[11]; Caco-2, pH 7.4, Efflux ratio, Caco-2, Papp (B-to-A)/Papp (A-to-B)",> 10
"COc1cc(-c2cncc(-c3ccc(N4C[C@@H](C)N(C)[C@@H](C)C4)cc3)c2C)cc(OC)c1C(N)=O [Compound 26f, 2,6-Dimethoxy-4-(4-methyl-5-(4-((3R,5S)-3,4,5-trimethylpiperazin-1-yl)phenyl)pyridin-3-yl)benzamide]",IC50,[3],0.021 µM
same,"remaining at 1 h, 1 μM",[7]; [18],57.5%
same,"remaining at 1 h, 1 μM","[8]; human, microsomes",55.7%
same,Papp A→B,[14],0.7 ×10⁻⁶ cm/s
same,Papp B→A,[14],12.6 ×10⁻⁶ cm/s
COc1cc(-c2cncc(-c3ccc(N4CCNCC4)cc3)c2C)ccc1C(N)=O [Compound M4K2149],IC50,[15],>50 µM and >30 µM
same,IC50,[16],> 50 µM
same,efflux ratio,[17],8.1
